Experimental data reported in patent US8735412B2, “Sulfoximine-substituted anilinopyrimidine derivatives as CDK inhibitors, the production thereof, and use as medicine” (Bayer Intellectual Property GmbH, priority 2008, dated 2014).
Read-outs that look alike come from different tables or passages of the source. One block for each compound: values may come before it.

Columns and labels:
[1] = test system: HeLa-MaTu human cervical carcinoma xenograft; assay: HeLa-MaTu cervical tumor xenograft model on NMRI nude mice; assay type: in vivo; conditions: oral
Description: HeLa-MaTu (EPO-GmbH, Berlin) human cervical carcinoma cells, which were grown in cell culture, were implanted subcutaneously in the flank of female NMRI nude mice. […] The study was terminated as soon as the tumors in one of the groups reached a size of approx. 150 mm^2.
(§1) The growth-inhibiting effect of the compounds was tested in the HeLa-MaTu cervical tumor model as xenograft on NMRI nude mice. […] Treatment of the established tumors was begun on day 4 after inoculation of the tumors.
as §1, §1
(§2) The study was designed for determining the initial response of a human cervical carcinoma xenograft model to treatments with the 5-Br comparative substance V12. The growth-inhibiting effect of the compounds was tested in the HeLa-MaTu cervical tumor model as xenograft on NMRI nude mice. V12 was dissolved completely in the solubilizer 40% polyethylene glycol 400 (PEG 400)/60% water to a final concentration of 0.7 mg/ml (group 2), 0.85 mg/ml (group 3), or 1.0 mg/ml (group 4). Treatment of the established tumors was begun on day 4 after inoculation of the tumors.
HeLa-MaTu (EPO-GmbH, Berlin) human cervical carcinoma cells, which were grown in cell culture, were implanted subcutaneously in the flank of female NMRI nude mice. […] The study was terminated as soon as the tumors in one of the groups reached a size of approx. 160 mm^2.
(§3) The growth-inhibiting effect of the compounds was tested in the HeLa-MaTu cervical tumor model as xenograft on NMRI nude mice. […] Treatment of the established tumors was begun on day 5 after inoculation of the tumors.
as §3, §3
The following test groups were used: • Group 1: Control, treatment with solubilizer (40% PEG 400/60% water) • Group 2: Compound according to WO 2005/037800 prepared according to preparation V14 disclosed above • (6 mg/kg, oral, 2x daily on day 5, 6, 12, 13, 19, 20) • Group 3: Compound according to WO 2005/037800 prepared according to preparation V14 disclosed above • (8 mg/kg, oral, 2× daily on day 5, 6, 12, 13, 19, 20) • Group 4: Compound according to WO 2005/037800 prepared according to preparation V14 disclosed above • (10 mg/kg, oral, 2× daily on day 5, 6, 12, 13, 19, 20)
as §2, with “substance V14.” for “substance V12.”, “mice. V14” for “mice. V12”, “of 0.6” for “of 0.7”, “2), 0.8” for “2), 0.85”, “day 5” for “day 4”

[2] = test system: HeLa-MaTu cervical carcinoma cells; assay: Proliferation assay (Assay 4), crystal violet staining; assay type: cell-based; conditions: Homo sapiens, 96 h, 4 days incubation; read-out: HeLa-MaTu (Assay 4) Concentration for 50% inhibition of cellular proliferation, IC50
Description: 10.4 Assay 4: Proliferation Assay
Cultivated human HeLa-MaTu cervical carcinoma cells (obtained from EPO-GmbH, Berlin) were plated at a density of 3000 cells/measuring point in a 96-well multititer is plate in 200 μl of growth medium (DMEM/HAMS F12, 2 mM L-glutamine, 10% fetal calf serum). After 24 hours the cells of one plate (zero-point plate) were stained with crystal violet (see below), whereas the medium of the other plates was replaced with fresh culture medium (200 μl), to which the test substances had been added at various concentrations (0 μM, and in the range 0.01-30 μM; the final concentration of the solvent dimethylsulfoxide was 0.5%). The cells were incubated for 4 days in the presence of the test substances. Cellular proliferation was determined by staining the cells with crystal violet: the cells were fixed by adding 20 μl/measuring point of an 11% glutaraldehyde solution for 15 min at room temperature. After washing the fixed cells with water three times, the plates were dried at room temperature. The cells were stained by adding 100 μl/measuring point of a 0.1% crystal violet solution (pH adjusted to pH3 by adding acetic acid). After washing the stained cells with water three times, the plates were dried at room temperature. The dye was dissolved by adding 100 μl/measuring point of a 10% acetic acid solution. The extinction was determined photometrically at a wavelength of 595 nm. The percentage change in cell growth was calculated by standardization of the measured values to the extinction values of the zero-point plate (=0%) and the extinction of the untreated (0 μM) cells (=100%). The measured data were standardized to 0% inhibition (cell proliferation without inhibitor) and 100% inhibition (zero-point plate). The IC50 values were determined by means of a 4-parameter fit using the company's own software.

CDK2/CycE = molecular target: T1, CDK2/CycE (Homo sapiens, UniProt P24941); assay: CDK2/CycE kinase assay (Assay 2); assay type: biochemical; conditions: 0.5 μM ATP, histon IIIS substrate; read-out: CDK2/CycE (Assay 2) Concentration for 50% inhibition of enzyme activity, IC50
T1 construct: purchased ProQinase GmbH, Freiburg; host or cells: baculovirus-infected insect cells (Sf9)
Description: 10.2 Assay 2: CDK2/CycE Kinase Assay
(§4) Recombinant CDK2 and CycE-GST fusion proteins, purified from baculovirus-infected insect cells (Sf9), were purchased from ProQinase GmbH, Freiburg. Histon IIIS, used as kinase substrate, was purchased from the company Sigma. CDK2/CycE (50 ng/measuring point) was incubated for 10 min at 22° C. in the presence of various concentrations of test substances (0 μM, and within the range 0.01-100 μM) in assay buffer [50 mM Tris/HCl pH8.0, 10 mM MgCl2, 0.1 mM Na ortho-vanadate, 1.0 mM dithiothreitol, 0.5 μM adenosine triphosphate (ATP), 10 μg/measuring point histon IIIS, 0.2 μCi/measuring point ^33P-gamma ATP, 0.05% NP40, 1.25% dimethylsulfoxide]. The reaction was stopped by adding EDTA solution (250 mM, pH8.0, 15 μl/measuring point).
(§5) From each reaction mixture, 15 μl was applied to P30 filter strips (from Wallac), and unincorporated ^33P-ATP was removed by washing the filter strips three times, for 10 min each time, in 0.5% phosphoric acid. After drying the filter strips for 1 hour at 70° C., the filter strips were covered with scintillator strips (MeltiLex™ A, from Wallac) and stoved for 1 hour at 90° C. The amount of incorporated ^33P (substrate phosphorylation) was determined by scintillation measurement in a gamma-radiation measuring instrument (Wallac). The measured data were standardized to 0% inhibition (enzyme reaction without inhibitor) and 100% inhibition (all assay components except enzyme). The IC50 values were determined by means of a 4-parameter fit using the company's own software.

CDK1/CycB = molecular target: T2, CDK1/CycB (Homo sapiens, UniProt P06493); assay: CDK1/CycB kinase assay (Assay 1); assay type: biochemical; conditions: 0.5 μM ATP, histon IIIS substrate; read-out: CDK1/CycB (Assay 1) Concentration for 50% inhibition of enzyme activity, IC50
T2 construct: purchased ProQinase GmbH, Freiburg; host or cells: baculovirus-infected insect cells (Sf9)
T2 sequence (P06493 whole entry): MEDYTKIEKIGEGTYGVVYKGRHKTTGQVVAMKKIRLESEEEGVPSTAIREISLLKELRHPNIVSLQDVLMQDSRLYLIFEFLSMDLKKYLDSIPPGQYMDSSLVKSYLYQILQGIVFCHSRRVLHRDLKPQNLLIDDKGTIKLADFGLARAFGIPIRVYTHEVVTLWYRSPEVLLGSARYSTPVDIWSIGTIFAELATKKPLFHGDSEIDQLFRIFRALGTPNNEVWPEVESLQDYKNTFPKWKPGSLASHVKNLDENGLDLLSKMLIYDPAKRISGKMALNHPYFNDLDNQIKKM
T2 sequence (P14635 whole entry partner): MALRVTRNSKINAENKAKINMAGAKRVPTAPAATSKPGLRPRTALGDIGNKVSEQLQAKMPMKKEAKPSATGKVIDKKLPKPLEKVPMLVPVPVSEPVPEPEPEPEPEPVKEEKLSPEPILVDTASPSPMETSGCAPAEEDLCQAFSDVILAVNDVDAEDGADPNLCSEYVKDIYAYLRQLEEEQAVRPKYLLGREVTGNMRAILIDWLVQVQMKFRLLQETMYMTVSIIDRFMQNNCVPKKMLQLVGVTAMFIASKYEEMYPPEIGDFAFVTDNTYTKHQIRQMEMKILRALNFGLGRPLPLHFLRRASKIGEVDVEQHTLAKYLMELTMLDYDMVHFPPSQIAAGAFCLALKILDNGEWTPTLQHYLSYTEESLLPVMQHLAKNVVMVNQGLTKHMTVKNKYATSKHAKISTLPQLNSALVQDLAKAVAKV
Description: 10.1 Assay 1: CDK1/CycB Kinase Assay
Recombinant CDK1 and CycB-GST fusion proteins, purified from baculovirus-infected insect cells (Sf9), were purchased from ProQinase GmbH, Freiburg. The histon IIIS used as kinase substrate is commercially available from the company Sigma.
as §4, with “CDK1/CycB (200” for “Recombinant CDK2 and CycE-GST fusion proteins, purified from baculovirus-infected insect cells (Sf9), were purchased from ProQinase GmbH, Freiburg. Histon IIIS, used as kinase substrate, was purchased from the company Sigma. CDK2/CycE (50”
as §5

[3] = 2.5 mg/kg (group 4), 2x daily on day 5, 6, 12, 13, 19, 20, day 20
[4] = 1.5, 2.0, 2.5 mg/kg, 2x daily on day 5, 6, 12, 13, 19, 20
[5] = Mus musculus, 480 h, 2.5 mg/kg (group 4), 2x daily on day 5, 6, 12, 13, 19, 20, day 20, read-out: treatment/control ratio T/C (tumor weight)

Compound: C[C@@H](O)[C@@H](C)Oc1nc(Nc2ccc(S(=N)(=O)C3CC3)cc2)ncc1C(F)(F)F (mixture of isomers) [Example 1-SI-2, (RS)-S-Cyclopropyl-S-(4-{[4-{[(1R,2R)-2-hydroxy-1-methylpropyl]oxy}-5-(trifluoromethyl)pyrimidin-2-yl]amino}phenyl)sulfoximide]
- reduction of tumor weight at the end of the study to % of the control group [1, 3]: 19%
- effect on tumor growth (in words) [1, 4]: dose-dependent inhibition of tumor growth
- response vs control in vivo at 2.5 mg/kg [1, 5]: 19%

Compound: C[C@@H](O)[C@@H](C)Oc1nc(Nc2ccc(S(C)(=N)=O)cc2)ncc1C(F)(F)F (mixture of isomers) [Example 2-SI-2, (RS)-S-(4-{[4-{[(1R,2R)-2-Hydroxy-1-methylpropyl]oxy}-5-(trifluoromethyl)pyrimidin-2-yl]amino}phenyl)-S-methylsulfoximide]
- reduction of tumor weight at the end of the study to % of the control group [1, 3]: 18%
- effect on tumor growth (in words) [1, 4]: dose-dependent inhibition of tumor growth
- response vs control in vivo at 2.5 mg/kg [1, 5]: 18%
- IC50 [2]: 8 nM

Compound: C[C@@H](Nc1nc(Nc2ccc(S(=N)(=O)C3CC3)cc2)ncc1C(F)(F)F)C(C)(C)O (mixture of isomers) [Example 5-SI-2, (RS)-S-Cyclopropyl-S-(4-{[4-{[(R)-2-hydroxy-1,2-dimethylpropyl]amino}-5-(trifluoromethyl)pyrimidin-2-yl]amino}phenyl)sulfoximide]
- effect on tumor growth (in words) ([1]; 5 mg/kg, 2x daily on day 4, 5, 11, 12): greatly inhibited tumor growth
- reduction of tumor weight at the end of the study to % of the control group ([1]; 5 mg/kg, 2x daily on day 4, 5, 11, 12, day 17): 7%
- response vs control in vivo at 5 mg/kg ([1]; Mus musculus, 408 h, 5 mg/kg, 2x daily on day 4, 5, 11, 12, day 17, read-out: treatment/control ratio T/C (tumor weight)): 7%

Compound: CCS(=N)(=O)c1ccc(Nc2ncc(C(F)(F)F)c(N[C@H](C)[C@@H](C)O)n2)cc1 (mixture of isomers) [Example 6-SI-1, (RS)-S-Ethyl-S-(4-{[4-{[(1R,2R)-2-hydroxy-1-methylpropyl]amino}-5-(trifluoromethyl)pyrimidin-2-yl]amino}phenyl)sulfoximide]
- IC50 [2]: 16 nM

Compound: CCS(=N)(=O)c1ccc(Nc2ncc(C(F)(F)F)c(N[C@H](C)[C@@H](C)O)n2)cc1 (mixture of isomers) [Example 6-SI-2, (RS)-S-Ethyl-S-(4-{[4-{[(1R,2R)-2-hydroxy-1-methylpropyl]amino}-5-(trifluoromethyl)pyrimidin-2-yl]amino}phenyl)sulfoximide]
- reduction of tumor weight at the end of the study to % of the control group ([1]; 5 mg/kg (group 4), 2x daily on day 4, 5, 11, 12, 17, 18, day 20): 8%
- effect on tumor growth (in words) ([1]; 3, 4, 5 mg/kg, 2x daily on day 4, 5, 11, 12, 17, 18): dose-dependent inhibition of tumor growth
- response vs control in vivo at 5 mg/kg ([1]; Mus musculus, 480 h, 5 mg/kg (group 4), 2x daily on day 4, 5, 11, 12, 17, 18, day 20, read-out: treatment/control ratio T/C (tumor weight)): 8%

- IC50 (CDK2/CycE): 5 nM
Compound: C[C@@H](Nc1nc(Nc2ccc(S(C)(=N)=O)cc2)ncc1C(F)(F)F)C(C)(C)O (single isomer, unassigned) [Example 9-SI-1]

- IC50 (CDK2/CycE): 3 nM
Compound: C[C@@H](Nc1nc(Nc2ccc(S(C)(=N)=O)cc2)ncc1C(F)(F)F)C(C)(C)O (single isomer, unassigned) [Example 9-SI-2]

Compound: C[C@@H](Nc1nc(Nc2ccc([S@](=N)(=O)C3CC3)cc2)ncc1Br)C(C)(C)O [Example V11, (R)-S-[4-({5-bromo-4-[(R)-(2-hydroxy-1,2-dimethylpropyl)amino]pyrimidin-2-yl}amino)phenyl]-S-cyclopropyl-sulfoximide]
- IC50 (CDK2/CycE): 7 nM
- tolerability of the cyclic treatment regimen ([1]; 8 mg/kg, 2x daily on 2 successive days followed by 5 treatment-free days): well-tolerated
- effect on tumor growth (in words) ([1]; 8 mg/kg, 2x daily on day 4, 5, 11, 12): inhibited tumor growth
- reduction of tumor weight at the end of the study to % of the control group ([1]; 8 mg/kg, 2x daily on day 4, 5, 11, 12, day 17): 39%
- response vs control in vivo at 8 mg/kg ([1]; Mus musculus, 408 h, 8 mg/kg, 2x daily on day 4, 5, 11, 12, day 17, read-out: treatment/control ratio T/C (tumor weight)): 39%
- IC50 [2]: 13 nM
- IC50 (CDK1/CycB): 8 nM
